Drawing on PubChem BioAssay AID330 (DTP/NCI, 2004), this text covers T/C for 18 molecules.

The subject of the experiment is P388 leukemia ip, CD2F1 mice, survival T/C. Nature of the experiment: NCI In Vivo Anticancer Drug Screen. Data for tumor model P388 Leukemia (intraperitoneal) in CD2F1 (CDF1) mice. Conditions: endpoint: median survival time, higher = longer survival. In a few lines: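 Mice carrying the transplanted tumor received test compound or vehicle. Survival was recorded in each group, and the value is the treated-group measurement divided by that of the vehicle-treated control group.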

[1] abbreviates: dose: 50.0 mg/kg/injection, schedule: Q01DX005 (ip), vehicle: Klucel (hydroxypropylcellulose) (HPC).
Setting [2] is: dose: 100.0 mg/kg/injection, schedule: Q01DX005 (ip), vehicle: Klucel (hydroxypropylcellulose) (HPC).
Where [3] appears, read: dose: 200.0 mg/kg/injection, schedule: Q01DX005 (ip), vehicle: Klucel (hydroxypropylcellulose) (HPC).
The mark [4] stands for this setting: dose: 6.25 mg/kg/injection, schedule: Q01DX009 (ip), vehicle: distilled water + Tween-80.
[5] abbreviates: dose: 50.0 mg/kg/injection, schedule: Q01DX009 (ip), vehicle: saline.
Setting [6] is: dose: 100.0 mg/kg/injection, schedule: Q01DX009 (ip), vehicle: saline.

“And” between values parts separate entries of the source, which are not always exact repeats. Equal values may be shown once. Toxic doses and inconclusive results are not listed.

Regarding `COc1cccc(CCCC(=O)O)c1`, the T/C was 100 % of control (dose: 100.0 mg/kg/injection, schedule: Q01DX009 (ip), vehicle: Klucel (hydroxypropylcellulose) (HPC)); 100 % of control (dose: 200.0 mg/kg/injection, schedule: Q01DX009 (ip), vehicle: Klucel (hydroxypropylcellulose) (HPC)); 104 % of control (dose: 400.0 mg/kg/injection, schedule: Q01DX009 (ip), vehicle: Klucel (hydroxypropylcellulose) (HPC)).
With `COc1cccc2c1C(=O)c1c(O)c3c(c(O)c1C2=O)CC(O)(C(C)=O)CC3OC1CC(NC2CCCCC2)C(O)C(C)O1` (centres undefined), the T/C was 100 % of control (dose: 6.25 mg/kg/injection, schedule: Q04DX003 (ip), vehicle: distilled water + Tween-80); 104 % of control (dose: 12.5 mg/kg/injection, schedule: Q04DX003 (ip), vehicle: distilled water + Tween-80); 102 % of control (dose: 25.0 mg/kg/injection, schedule: Q04DX003 (ip), vehicle: distilled water + Tween-80); 102 % of control (dose: 50.0 mg/kg/injection, schedule: Q04DX003 (ip), vehicle: distilled water + Tween-80); 104 % of control (dose: 100.0 mg/kg/injection, schedule: Q04DX003 (ip), vehicle: distilled water + Tween-80); 108 % of control (dose: 200.0 mg/kg/injection, schedule: Q04DX003 (ip), vehicle: distilled water + Tween-80).
In the case of `C=C(C[N+](C)(C)C)c1ccc([N+](=O)[O-])cc1`, the T/C under setting [1] is 102 % of control.
Take `CC1(C)C(=S)C(C)(C)C1=S`: the T/C under setting [1] is 104 % of control, the T/C under setting [2] is 104 % of control and the T/C under setting [3] was 108 % of control.
Consider `NC(=O)c1[nH]cnc1NN=NCCF`, for which the T/C by setting is: (dose: 0.39 mg/kg/injection, schedule: Q01DX009 (ip), vehicle: distilled water + Tween-80) 116 % of control and 122 % of control; (dose: 0.78 mg/kg/injection, schedule: Q01DX009 (ip), vehicle: distilled water + Tween-80) 116 % of control; (dose: 1.56 mg/kg/injection, schedule: Q01DX009 (ip), vehicle: distilled water + Tween-80) 150 % of control; (dose: 3.13 mg/kg/injection, schedule: Q01DX009 (ip), vehicle: distilled water + Tween-80) 179 % of control; under setting [4], 175 % of control.
Turning to `O=C1CCCC1(c1ccccc1)c1ccccc1`, the T/C was 90 % of control (dose: 100.0 mg/kg/injection, schedule: Q01DX009 (ip), vehicle: saline with Tween-80); 95 % of control (dose: 200.0 mg/kg/injection, schedule: Q01DX009 (ip), vehicle: saline with Tween-80); 95 % of control (dose: 400.0 mg/kg/injection, schedule: Q01DX009 (ip), vehicle: saline with Tween-80).
On to `[C-]#[N+]C(C)Cc1ccccc1` (centres undefined), for which the T/C reads like this: (dose: 1.56 mg/kg/injection, schedule: Q04DX003 (ip), vehicle: saline) 101 % of control; (dose: 3.13 mg/kg/injection, schedule: Q04DX003 (ip), vehicle: saline) 103 % of control; (dose: 6.25 mg/kg/injection, schedule: Q04DX003 (ip), vehicle: saline) 103 % of control; (dose: 12.5 mg/kg/injection, schedule: Q04DX003 (ip), vehicle: saline) 105 % of control; (dose: 25.0 mg/kg/injection, schedule: Q04DX003 (ip), vehicle: saline) 104 % of control.
For the molecule `COc1cc([C@@H]2c3cc4c(c(O)c3C[C@H]3COC(=O)[C@@H]32)OCO4)cc(OC)c1O`, the T/C is 121 % of control (dose: 0.25 mg/kg/injection, schedule: Q01DX009 (ip), vehicle: suspension in saline); 150 % of control (dose: 1.0 mg/kg/injection, schedule: Q01DX009 (ip), vehicle: saline); 99 % of control (dose: 1.0 mg/kg/injection, schedule: Q01DX009 (ip), vehicle: suspension in saline).
On to `Nc1ccc(C(=O)Nc2ccc(S(=O)(=O)O)c3cccc(O)c23)cc1`, for which the T/C under setting [1] was 109 % of control, the T/C under setting [2] was 111 % of control and the T/C under setting [3] was 109 % of control.
Take `O=C1c2cccc([N+](=O)[O-])c2C(=O)N1CC[P+](c1ccccc1)(c1ccccc1)c1ccccc1`: the T/C runs as follows: (dose: 0.78 mg/kg/injection, schedule: Q01DX009 (ip), vehicle: water) 97 % of control; (dose: 1.56 mg/kg/injection, schedule: Q01DX009 (ip), vehicle: water) 100 % of control; (dose: 3.13 mg/kg/injection, schedule: Q01DX009 (ip), vehicle: water) 94 % of control; (dose: 6.25 mg/kg/injection, schedule: Q01DX009 (ip), vehicle: water) 97 % of control; (dose: 12.5 mg/kg/injection, schedule: Q01DX009 (ip), vehicle: water) 95 % of control; (dose: 25.0 mg/kg/injection, schedule: Q01DX009 (ip), vehicle: water) 100 % of control. Also, the T/C (dose: 50.0 mg/kg/injection, schedule: Q01DX009 (ip), vehicle: water) was 109 % of control and the T/C (dose: 100.0 mg/kg/injection, schedule: Q01DX009 (ip), vehicle: water) was 107 % of control.
Regarding `COc1cccc2cc3c(cc12)C(=O)C(C)=C(C)C3=O`, the T/C (dose: 100.0 mg/kg/injection, schedule: Q04DX003 (ip), vehicle: Klucel (hydroxypropylcellulose) (HPC)) is 94 % of control; the T/C (dose: 200.0 mg/kg/injection, schedule: Q04DX003 (ip), vehicle: Klucel (hydroxypropylcellulose) (HPC)) is 97 % of control; the T/C (dose: 400.0 mg/kg/injection, schedule: Q04DX003 (ip), vehicle: Klucel (hydroxypropylcellulose) (HPC)) was 109 % of control.
Turning to `COc1cc([C@@H]2c3cc4c(cc3[C@H](OC(=O)c3ccccc3C(=O)O)[C@H]3COC(=O)[C@H]23)OCO4)cc(OC)c1OC`, the T/C by setting is: (dose: 12.5 mg/kg/injection, schedule: Q01DX005 (ip), vehicle: Klucel (hydroxypropylcellulose) (HPC)) 119 % of control; (dose: 25.0 mg/kg/injection, schedule: Q01DX005 (ip), vehicle: Klucel (hydroxypropylcellulose) (HPC)) 119 % of control.
For `CCN(CC)C(=O)N1C=CC(c2ccccc2)C=C1`, the T/C was 103 % of control (dose: 60.0 mg/kg/injection, schedule: Q01DX005 (ip), vehicle: saline with Tween-80); 106 % of control (dose: 120.0 mg/kg/injection, schedule: Q01DX005 (ip), vehicle: saline with Tween-80); 108 % of control (dose: 240.0 mg/kg/injection, schedule: Q01DX005 (ip), vehicle: saline with Tween-80).
Regarding `O=S(=O)(c1ccc(Br)cc1)S(=O)(=O)c1ccc(Br)cc1`, the T/C under setting [5] was 87 % of control; the T/C under setting [6] was 92 % of control; the T/C (dose: 200.0 mg/kg/injection, schedule: Q01DX009 (ip), vehicle: saline) is 95 % of control.
Turning to `Cc1cccc(Oc2ccc(C(F)(F)F)cc2[N+](=O)[O-])c1C`, the T/C was 99 % of control under setting [5] and 99 % of control under setting [6].
With `Cc1ccc(S(=O)(=O)n2cccn2)cc1`, the T/C is 95 % of control under setting [4]; 100 % of control (dose: 12.5 mg/kg/injection, schedule: Q01DX009 (ip), vehicle: distilled water + Tween-80); 94 % of control (dose: 25.0 mg/kg/injection, schedule: Q01DX009 (ip), vehicle: distilled water + Tween-80); 88 % of control (dose: 25.0 mg/kg/injection, schedule: Q01DX009 (ip), vehicle: other); 105 % of control (dose: 50.0 mg/kg/injection, schedule: Q01DX009 (ip), vehicle: distilled water + Tween-80); 99 % of control (dose: 100.0 mg/kg/injection, schedule: Q01DX009 (ip), vehicle: distilled water + Tween-80). The T/C reads like this: (dose: 100.0 mg/kg/injection, schedule: Q01DX009 (ip), vehicle: other) 113 % of control; (dose: 200.0 mg/kg/injection, schedule: Q01DX009 (ip), vehicle: other) 104 % of control; (dose: 400.0 mg/kg/injection, schedule: Q01DX009 (ip), vehicle: other) 112 % of control.
With `C=CC1(C)CC(=O)C2(O)C(C)(O1)C(OC(C)=O)C(O)C1C(C)(C)CCC(O)C12C` (centres undefined), the T/C is 99 % of control (dose: 2.0 mg/kg/injection, schedule: Q01DX005 (ip), vehicle: other); 100 % of control (dose: 4.0 mg/kg/injection, schedule: Q01DX005 (ip), vehicle: other); 95 % of control (dose: 8.0 mg/kg/injection, schedule: Q01DX005 (ip), vehicle: other); 94 % of control (dose: 16.0 mg/kg/injection, schedule: Q01DX005 (ip), vehicle: other).
`NC(=O)CN1CCN(c2ccnc3cc(Cl)ccc23)CC1`: the T/C was 101 % of control (dose: 25.0 mg/kg/injection, schedule: Q04DX002 (ip), vehicle: saline with Tween-80); 99 % of control (dose: 50.0 mg/kg/injection, schedule: Q04DX002 (ip), vehicle: saline with Tween-80); 99 % of control and 103 % of control (dose: 100.0 mg/kg/injection, schedule: Q04DX002 (ip), vehicle: saline with Tween-80).
